Reference: PubChem BioAssay (NCI)
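1) Cells in 96-well plates. 2) Compound, 48 h, 5 concentrations. 3) Linear interpolation between surrounding doses. 4) Unreached endpoint = highest concentration. At the GI50, growth is halved. The concentration for full growth arrest is given as TGI.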

These molecules were tested on SNB-19 CNS (assay: NCI tumour cell line growth inhibition, 48 h).
O=C1c2ccccc2C(=O)N1C/C=N/NS(=O)(=O)c1ccc(Br)cc1 was tested, and the TGI was > 100 µM. COc1ccc(-c2noc(N)c2-c2cc(OC)c3c(c2)OCO3)cc1 was tested, and the GI50 was 10.6 µM and the TGI was > 100 µM. NC(=O)c1cn(Cc2ccccc2)c(=O)n1Cc1ccccc1 was tested, and the TGI was > 100 µM. With Cc1c(Cl)cccc1NC(=O)c1cccc([N+](=O)[O-])c1O the TGI was > 100 µM. In the case of CC1COS(=O)O1 (centres undefined), the TGI is reported as > 100 µM. With CC1CCC(C(C)(C)c2ccccc2)C(=O)C1 (centres undefined) the TGI was > 100 µM. For O=C1CC2CCN(C(=O)c3ccccc3)CC2CCN1 (centres undefined), the TGI was > 100 µM. In the case of O=C1C=CC(=CC=C2C=CN(CCCCCCCCCCC(=O)NCCCCCCCCCCCC(=O)O)C=C2)C=C1, the TGI is reported as > 100 µM. N#Cc1c(-c2ccco2)cc(-c2ccc(N)cc2)[nH]c1=O was tested, and the TGI was > 100 µM. C=CCC1(C)CCCCC1(O)CS(=O)c1ccccc1 (centres undefined) was tested, and the TGI was > 100 µM. In the case of C1COCCSC2=C(SCCO1)SC(=C1SC3=C(SCCOCCOCCS3)S1)S2, the TGI is reported as > 100 µM. For COc1cc(/C=N\O[Si](C)(C)C(C)(C)C)ccc1O[Si](C)(C)C(C)(C)C, the TGI was > 100 µM. With COc1cc2c(cc1OC)C1Cc3cc(OC)c(OC)cc3N1CC2 (centres undefined) the TGI was > 100 µM. In the case of O=C1C2[C@@H](C(=O)N1c1ccc(Br)cc1)C13C(=CC2([N+](=O)[O-])[C@@H]2C(=O)N(c4ccc(Br)cc4)C(=O)[C@@H]21)c1ccccc1N3c1ccccc1 (some centres undefined), the TGI is reported as > 100 µM. With CCOC(=O)C1=C(Nc2ccc(Br)cc2)OCC1=O the TGI was > 100 µM. CCOc1ccc(N=Cc2c3ccccc3nc3ccccc23)cc1 was tested, and the TGI was > 100 µM. For Nc1ccc(C2=N/C(=C\c3cccc(N)c3)C(=O)O2)cc1, the TGI was > 100 µM. CC(=O)[CH-]C(=O)c1ccccc1.CC(=O)[CH-]C(=O)c1ccccc1.O=S(=O)([O-])c1cc([O-])c2c([O-])cc(S(=O)(=O)[O-])cc2c1.[Na+].[Ti+4] was tested, and the GI50 was > 100 µM and the TGI was > 100 µM. Molecule Cc1cc(NCCCCNc2ccnc3cc(Cl)ccc23)nc(Nc2ccc(C(=O)N3CCCCC3)cc2)n1 has a GI50 of 3.25 µM and a TGI of 13.3 µM. For NCCN.O=C([O-])[O-].O=C([O-])[O-].[Co+3].[K+], the GI50 was > 100 µM and the TGI was > 100 µM. C1=NC(N(Cc2ccccc2)Cc2ccccc2)N(Cc2ccccc2)N1 (centres undefined) showed a TGI of 55.3 µM.

The molecules below were run on HL-60(TB) leukemia (assay: NCI tumour cell line growth inhibition, 48 h).
CCc1cccc(C)c1NC(=O)CC1C(=O)Nc2ccccc2S1=O (centres undefined) showed a TGI of 74.9 µM. For Cc1ccc(N2C(=O)N(c3ccc(C)cc3)C3(SC=NN3C)C2=O)cc1 (centres undefined), the TGI was > 100 µM. In the case of O=C1c2ccc3c4ccccc4n(-c4ccccc4)c3c2C(=O)N1c1ccc(Cl)cc1, the TGI is reported as > 100 µM. For Cc1ccc2c(c1-c1ccccc1)C(=O)OC2, the TGI was > 100 µM. In the case of CCC[CH2][Sn]1([CH2]CCC)[O]CC(COc2c(Cl)cc(Cl)cc2Cl)[O]1 (centres undefined), the TGI is reported as 0.673 µM. Molecule CSc1ccc2c(cc1=O)[C@@H](NC(=O)c1cc(O)c(O)c(O)c1)CCc1cc(O)c(O)c(O)c1-2 has a TGI of 40.7 µM. For COc1cc(-c2nnc3n2NC=C(C(=O)O)S3)cc(OC)c1OC, the TGI was > 73.4 µM. For C[P+](C)(C)c1ccccc1, the TGI was > 100 µM. With O=C1c2ccccc2C(=O)N1C/C=N/NS(=O)(=O)c1ccc(Br)cc1 the TGI was > 100 µM. Molecule COc1ccc(-c2noc(N)c2-c2cc(OC)c3c(c2)OCO3)cc1 has a GI50 of 1.64 µM and a TGI of 7.6 µM. With NC(=O)c1cn(Cc2ccccc2)c(=O)n1Cc1ccccc1 the TGI was > 100 µM. With CCOC(=O)C(C)(c1c(C)[nH]c2ccccc12)c1c(C)[nH]c2ccccc12 the TGI was 37.6 µM. In the case of Cc1c(Cl)cccc1NC(=O)c1cccc([N+](=O)[O-])c1O, the TGI is reported as > 49.4 µM. For CC1COS(=O)O1 (centres undefined), the TGI was > 100 µM. CC1CCC(C(C)(C)c2ccccc2)C(=O)C1 (centres undefined) was tested, and the TGI was > 100 µM. In the case of O=C1CC2CCN(C(=O)c3ccccc3)CC2CCN1 (centres undefined), the TGI is reported as > 100 µM. For O=C1C=CC(=CC=C2C=CN(CCCCCCCCCCC(=O)NCCCCCCCCCCCC(=O)O)C=C2)C=C1, the TGI was > 100 µM. N#Cc1c(-c2ccco2)cc(-c2ccc(N)cc2)[nH]c1=O was tested, and the TGI was > 100 µM. C=CCC1(C)CCCCC1(O)CS(=O)c1ccccc1 (centres undefined) was tested, and the TGI was > 100 µM. With C1COCCSC2=C(SCCO1)SC(=C1SC3=C(SCCOCCOCCS3)S1)S2 the TGI was > 100 µM. With COc1cc(/C=N\O[Si](C)(C)C(C)(C)C)ccc1O[Si](C)(C)C(C)(C)C the TGI was > 100 µM. CC12CCC(=O)N1c1cccnc1N2 (centres undefined) was tested, and the TGI was > 100 µM. COc1cc2c(cc1OC)C1Cc3cc(OC)c(OC)cc3N1CC2 (centres undefined) was tested, and the TGI was 53.2 µM. In the case of O=C1C2[C@@H](C(=O)N1c1ccc(Br)cc1)C13C(=CC2([N+](=O)[O-])[C@@H]2C(=O)N(c4ccc(Br)cc4)C(=O)[C@@H]21)c1ccccc1N3c1ccccc1 (some centres undefined), the TGI is reported as > 100 µM. With CCOC(=O)C1=C(Nc2ccc(Br)cc2)OCC1=O the TGI was 33.9 µM. CCOc1ccc(N=Cc2c3ccccc3nc3ccccc23)cc1 was tested, and the TGI was 77.2 µM. With Nc1ccc(C2=N/C(=C\c3cccc(N)c3)C(=O)O2)cc1 the TGI was > 100 µM. For CC(=O)[CH-]C(=O)c1ccccc1.CC(=O)[CH-]C(=O)c1ccccc1.O=S(=O)([O-])c1cc([O-])c2c([O-])cc(S(=O)(=O)[O-])cc2c1.[Na+].[Ti+4], the GI50 was > 100 µM and the TGI was > 100 µM. With NCCN.O=C([O-])[O-].O=C([O-])[O-].[Co+3].[K+] the GI50 was > 100 µM and the TGI was > 100 µM. With C1=NC(N(Cc2ccccc2)Cc2ccccc2)N(Cc2ccccc2)N1 (centres undefined) the TGI was > 100 µM.

Each molecule was assayed on HT29 colon (assay: NCI tumour cell line growth inhibition, 48 h).
With CCc1cccc(C)c1NC(=O)CC1C(=O)Nc2ccccc2S1=O (centres undefined) the TGI was > 100 µM. In the case of Cc1ccc(N2C(=O)N(c3ccc(C)cc3)C3(SC=NN3C)C2=O)cc1 (centres undefined), the TGI is reported as > 100 µM. For O=C1c2ccc3c4ccccc4n(-c4ccccc4)c3c2C(=O)N1c1ccc(Cl)cc1, the TGI was > 100 µM. Cc1ccc2c(c1-c1ccccc1)C(=O)OC2 was tested, and the TGI was > 100 µM. Work on CCC[CH2][Sn]1([CH2]CCC)[O]CC(COc2c(Cl)cc(Cl)cc2Cl)[O]1 (centres undefined) yielded a GI50 of 2.09 µM and a TGI of 4.19 µM. For NC(CCc1ncc(C(=O)O)s1)C(=O)O (centres undefined), the TGI was > 100 µM. Work on CSc1ccc2c(cc1=O)[C@@H](NC(=O)c1cc(O)c(O)c(O)c1)CCc1cc(O)c(O)c(O)c1-2 yielded a TGI of 48.7 µM. With COc1cc(-c2nnc3n2NC=C(C(=O)O)S3)cc(OC)c1OC the TGI was > 100 µM. C[P+](C)(C)c1ccccc1 was tested, and the TGI was > 100 µM. O=C1c2ccccc2C(=O)N1C/C=N/NS(=O)(=O)c1ccc(Br)cc1 was tested, and the TGI was > 100 µM. With COc1ccc(-c2noc(N)c2-c2cc(OC)c3c(c2)OCO3)cc1 the GI50 was 1.39 µM and the TGI was > 35.5 µM. With NC(=O)c1cn(Cc2ccccc2)c(=O)n1Cc1ccccc1 the TGI was > 100 µM. Molecule CCOC(=O)C(C)(c1c(C)[nH]c2ccccc12)c1c(C)[nH]c2ccccc12 has a TGI of 30.3 µM. For Cc1c(Cl)cccc1NC(=O)c1cccc([N+](=O)[O-])c1O, the TGI was 82 µM. With CC1COS(=O)O1 (centres undefined) the TGI was > 100 µM. For CC1CCC(C(C)(C)c2ccccc2)C(=O)C1 (centres undefined), the TGI was > 100 µM. For O=C1CC2CCN(C(=O)c3ccccc3)CC2CCN1 (centres undefined), the TGI was > 100 µM. In the case of O=C1C=CC(=CC=C2C=CN(CCCCCCCCCCC(=O)NCCCCCCCCCCCC(=O)O)C=C2)C=C1, the TGI is reported as > 100 µM. N#Cc1c(-c2ccco2)cc(-c2ccc(N)cc2)[nH]c1=O was tested, and the TGI was > 100 µM.
